The results in this text go back to patent publication US10000521B2 (priority 2013, dated 2018).

“Also recorded” adds a separate entry of the source.

Data set [1] can be described thus: Stability test at different pH conditions (HPLC). In kind it is physicochemical. The protocol:
HPLC analysis: 100 μl of the incubated solution was loaded onto a Vydac C18 analytical column 4.6/250, and the mobile phase run at 1 mL/min water with the following procedures: a. Inject 100 μl the incubated solution; b. Water for 5 minutes at 1 ml/min; c. 0-100% acetonitrile over 30 minutes; d. Back to 100% water.
Analysis: Standard HPLC analysis software was used to quantitate the area under each peak. Degradation peaks were quantitated as a percentage of the peak of the same amount of control sample (no heat treatment).

Data set [2] has as its system PK9 cells. Nature of the data set: TC50 assay with inhibition of ENT1, PK9 cells. In kind it is cell-based. To be noted: Homo sapiens, PK9, 48 h, PK9 cells (48 h). The protocol:
Plating Cells: Huh7 cells or PK9 cells were seeded in 96-well plates at a density of 5,000 cells/well or 2,500 cells/well, respectively, and the plates were incubated at 37° C. for 24 h to allow for cell attachment.
Treatment with equilibrative nucleoside transporter 1 (ENT1) Inhibitor: The media was then removed from the plates and replaced with media containing 2% FBS, 0.5% DMSO, and either 10 μM dipyramidole or 10 μM S-(4-nitrobenzyl)-6-thioinosine (NBTI).
Treating with Control & Compound 1: After incubation with the ENT1 inhibitor, the cells were treated with each compound at final concentrations ranging from 500 μM to 0 μM in triplicate in media containing 2% FBS, 0.5% DMSO, and either 10 μM dipyridamole or 10 μM NBTI.

The subject of data set [3] is PK9 cells. Nature of the data set: TC50 assay, effect of deficient deoxycytidine kinase activity, PK9 cells. In kind it is cell-based. To be noted: Homo sapiens, 48 h, read-out: TC50 (μM), 48 h treatment. The protocol:
Plating Cells: PK9 or RPK9 cells were seeded in 96-well plates at a density of 2,500 cells/well or 2,500 cells/well, respectively, and the plates were incubated at 37° C. for 24 h to allow for cell attachment.
Treating with Control & Compound 1: The cells were treated with each compound at final concentrations ranging from 500 μM to 0 μM in triplicate in media containing 2% FBS and 0.5% DMSO.
The RPK9 cells are described in Saiki, T., et al. (2012) Biochim. Biophys. Res. Commun. 421, 98-104).

Data set [4] concerns HEPG2. Put plainly: TC50 assay in different human cell lines (96 h), HEPG2. To be noted: about 96 h, MTS assay. The format is cell-based. The protocol: (§1) The 96-well plate with cells incubated with test compound was removed from the 37° C. incubator. The appropriate amounts of the MTS and PMS reagents were removed from the kit and mixed well. The reagents were maintained in the dark due to their light sensitivity. […] The solutions were mixed completely in the wells prior to each reading.
(§2) Plating Cells: Huh7, HEPG2, HEK293, MCF-7, or BxPC3 cells (which can be obtained from American Type Culture Collection, ATCC) were passaged when they were about 70% confluent. […] The cells following passaging were allowed to attach for about 24 hours at 37° C.
(§3) The plates were then returned to the incubator, and cells incubated for about 96 h at 37° C.
(§4) MTS Assay: Assay was carried out as described above.
(In general: Tetrazolium dyes change colour on reduction, which living cells bring about.)

Data set [5] concerns MCF-7. Put plainly: TC50 assay in different human cell lines (96 h), MCF-7. To be noted: MCF7, about 96 h, MTS assay. The format is cell-based. The protocol:
as §1, §2, §3, §4

Data set [6] is described as follows: In vivo pharmacokinetic assessment (LC-MS/MS, plasma and liver). To be noted: mice, oral. The protocol:
All pharmacokinetic studies were performed with CD-1 ICR mice (female, 4-6 week old; 20-30 gram body weight), and three mice were used at each dose level and at each time point for each compound tested. […] Tetrahydrouridine (THU) was immediately added to plasma samples at a final concentration of 25 μg/mL to prevent deamination of dFdC after collection, and the samples were subsequently flash-frozen and stored at −80° C. until analysis. Approximately 200-300 mg of each mouse liver was dissected and homogenized in 150 μL of phosphate buffered saline (PBS) containing 25 μg/mL THU, resulting in 2 mg liver/μL saline homogenate. These liver homogenates were also flash-frozen and stored at −80° C. until analysis. Equivalent amounts of blood plasma and liver tissue were also collected from untreated mice and used to prepare calibration standards and quality controls. An LC-MS/MS assay was utilized to simultaneously quantify the concentrations of compound 1, dFdC and dFdU in each of the plasma and liver samples.

Consider `O=C(Nc1ccn(C2O[C@H](CO)[C@@H](O)C2(F)F)c(=O)n1)c1ccc2c(c1)OCO2` (stereo partly drawn) [Compound 1, N-(1-((4R,5R)-3,3-difluoro-4-hydroxy-5-(hydroxymethyl)tetrahydrofuran-2-yl)-2-oxo-1,2-dihydropyrimidin-4-yl)benzo[d][1,3]dioxole-5-carboxamide], for which the “Compound remaining (%)” value in data set [1] (Pretreatment) is 100%; in data set [1] (pH 1, 40° C., 4 h), 64%; in data set [1] (pH 2, 40° C., 4 h), 100%; in data set [1] (pH 4, 40° C., 4 h) it was 100%; in data set [1] (pH 6, 40° C., 4 h), 100%; in data set [1] (pH 8, 40° C., 4 h) it was 92%. For the same molecule, the CC50 in data set [2] (10 μM NBTI) was determined as 2920 ± 410 nM; in data set [2] (10 μM dipyridamole), 610 ± 310 nM; in data set [2] (ENT1 inhibitor: None) it was 1630 ± 100 nM; in data set [3] it was 1.63 ± 0.1 µM; in data set [4], 2810 nM; in data set [5] it was 1190 nM. Further, the “distribution of gemcitabine produced by hydrolysis, liver versus plasma” value in data set [6] is recorded as “higher concentration in the liver than in plasma”. The “linearity of dFdC exposure vs. compound 1 dosage” value in data set [6] (1.0-8.0 mg/kg) is on record as “linear pharmacokinetics”. Besides, the entries for the “Liver AUCobs of compound 1” value in data set [6] (dose 1.0 mg/kg), in data set [6] (dose 4.0 mg/kg) and in data set [6] (dose 8.0 mg/kg) were 1.10 µmol·min/L, 7.84 µmol·min/L and 9.53 µmol·min/L, respectively. For the same molecule, the figures for the “Plasma AUCobs of compound 1” value in data set [6] (dose 1.0 mg/kg), in data set [6] (dose 4.0 mg/kg) and in data set [6] (dose 8.0 mg/kg) were 0.95 µmol·min/L, 3.45 µmol·min/L and 3.71 µmol·min/L, respectively. In addition, the “Plasma AUCobs of dFdC converted from compound 1” value in data set [6] (dose 1.0 mg/kg) amounted to 0.26 µmol·min/L; in data set [6] (dose 4.0 mg/kg) it was 5.03 µmol·min/L; in data set [6] (dose 8.0 mg/kg) it was 9.45 µmol·min/L. In addition, in data set [6] (plasma and liver samples), the “first-pass metabolism to inactive metabolite dFdU” value is “less of the inactive metabolite dFdU; also recorded: reduced first pass metabolism to the inactive metabolite dFdU”.
